What was measured:
[1] = refractive index (Na D-line) (dimensionless); xn = mol fraction of the nth substance listed; conditions: 101 kPa, Liquid, Standard Abbe refractometry
[2] = xn = mol fraction of the nth substance listed; conditions: 101 kPa, Liquid; for speed of sound: Sing-around technique in a fixed-path interferometer

Cc1ccc(O)cc1 [4-methylphenol] + CCCCCCCCCCO
Conditions | mass density, 298.15 K [kg/m3] | mass density, 303.15 K [kg/m3] | mass density, 308.15 K [kg/m3] | refractive index, 298.15 K | refractive index, 303.15 K | refractive index, 308.15 K | speed of sound, 298.15 K [m/s] | speed of sound, 303.15 K [m/s] | speed of sound, 308.15 K [m/s]
[1], x1 = 0.079 | – | – | – | 1.43878 | 1.43659 | 1.43439 | – | – | –
[1], x1 = 0.1424 | – | – | – | 1.44253 | 1.44025 | 1.43792 | – | – | –
[1], x1 = 0.2213 | – | – | – | 1.44759 | 1.44524 | 1.44279 | – | – | –
[1], x1 = 0.2915 | – | – | – | 1.45252 | 1.45006 | 1.44748 | – | – | –
[1], x1 = 0.3611 | – | – | – | 1.45786 | 1.45529 | 1.45263 | – | – | –
[1], x1 = 0.418 | – | – | – | 1.46259 | 1.45994 | 1.45719 | – | – | –
[1], x1 = 0.4915 | – | – | – | 1.46921 | 1.46649 | 1.46363 | – | – | –
[1], x1 = 0.5566 | – | – | – | 1.47562 | 1.47279 | 1.46987 | – | – | –
[1], x1 = 0.6321 | – | – | – | 1.48379 | 1.48088 | 1.47785 | – | – | –
[1], x1 = 0.7041 | – | – | – | 1.49234 | 1.48935 | 1.48629 | – | – | –
[1], x1 = 0.7628 | – | – | – | 1.49988 | 1.49689 | 1.49381 | – | – | –
[1], x1 = 0.8229 | – | – | – | 1.50829 | 1.50524 | 1.50212 | – | – | –
[1], x1 = 0.8793 | – | – | – | 1.51677 | 1.51369 | 1.51055 | – | – | –
[1], x1 = 0.9382 | – | – | – | 1.52626 | 1.52321 | 1.52011 | – | – | –
[1], x1 = 1 | – | – | – | 1.537 | 1.534 | 1.531 | – | – | –
[2], x1 = 0.079 | 836.102 | 832.641 | 829.175 | – | – | – | 1384.9 | 1367.8 | 1350.9
[2], x1 = 0.1424 | 844.261 | 840.772 | 837.278 | – | – | – | 1389 | 1371.9 | 1355.1
[2], x1 = 0.2213 | 855.053 | 851.531 | 847.999 | – | – | – | 1394 | 1376.9 | 1360
[2], x1 = 0.2915 | 865.315 | 861.764 | 858.196 | – | – | – | 1398.6 | 1381.6 | 1364.7
[2], x1 = 0.3611 | 876.182 | 872.603 | 869.001 | – | – | – | 1403.5 | 1386.4 | 1369.6
[2], x1 = 0.418 | 885.652 | 882.051 | 878.417 | – | – | – | 1407.7 | 1390.8 | 1373.9
[2], x1 = 0.4915 | 898.718 | 895.088 | 891.418 | – | – | – | 1413.7 | 1396.8 | 1379.9
[2], x1 = 0.5566 | 911.201 | 907.546 | 903.844 | – | – | – | 1419.6 | 1402.7 | 1385.9
[2], x1 = 0.6321 | 926.903 | 923.218 | 919.477 | – | – | – | 1427.5 | 1410.7 | 1394
[2], x1 = 0.7041 | 943.248 | 939.531 | 935.758 | – | – | – | 1436.1 | 1419.4 | 1402.8
[2], x1 = 0.7628 | 957.751 | 954.009 | 950.207 | – | – | – | 1444 | 1427.3 | 1411
[2], x1 = 0.8229 | 973.785 | 970.012 | 966.196 | – | – | – | 1453.2 | 1436.7 | 1420.2
[2], x1 = 0.8793 | 990.126 | 986.325 | 982.485 | – | – | – | 1462.3 | 1446.2 | 1429.9
[2], x1 = 0.9382 | 1008.68 | 1004.85 | 1000.99 | – | – | – | 1474.2 | 1458 | 1442.4
[2], x1 = 1 | 1030.14 | 1026.28 | 1022.38 | – | – | – | 1486.4 | 1470.7 | 1455

— the NIST ThermoML archive (doi:10.1021/je100362p)
